According to patent US6369212B1, “Cytochrome P450 gene highly expressed in the incompatible interaction” (Korea Kumbo Petrochemical Co., Ltd., priority 2000, dated 2002):

System: PepCYP mRNA
Experiment: RNA gel blot analysis of PepCYP expression in pepper fruits drop-applied with ABA or JA
Design: species or system pepper (Capsicum annuum)
Description: Both ripe-red and unripe-mature-green fruits of pepper cv Nokkwang were grown and harvested under greenhouse conditions. For wound treatments, five healthy ripe and unripe fruits were deeply scratched with a knife and incubated at 100% relative humidity at 27° C. in the dark. Ten μl of ABA at 4 and 40 μM, or JA at 4 and 40 μM were drop-applied to both ripe and unripe sets of five fruits, respectively. After incubation under the conditions described above, the fruits were excised to 1 cm^2 at the drop-application site for the fungus, ABA or JA, and at the wounding site. The samples were then frozen in liquid nitrogen. Leaf, root, and stem samples were harvested from 3-week-old plants and handled as described above for fungal inoculation and wounding.
Total RNA (10 μg/lane) from each plant tissue used in this study was separated on 1.2% denaturing agarose gels in the presence of formaldehyde. RNA gel-blotting, hybridization and washing were conducted as described by the manufacturer of the positively charged nylon membrane employed (Hybond N^+; Amersham Pharmacia Biotech). Radiolabeled probes were prepared with [α-^32P]dCTP (Amersham Pharmacia Biotech) using a random primer-labeling kit (Boehringer, Mannheim, Germany).
Jasmonic acid (JA) is a plant hormone with roles in mechanical wounding responses (Creelman et al. 1992; Creelman and Mullet 1997). ABA is hypothesized to be a key component in wound-signaling cascade leading to the activation of a defense gene (Pena-Cortés et al. 1996; Wasternack and Partheir 1997). Thus, we further examined whether the wound-inducible PepCYP expression is inducible by ABA or JA treatments. RNA gel blot analysis was performed with total RNAs prepared from the application sites of both ripe and unripe fruits drop-applied with ABA or JA for 24 h.

Structure (SMILES)	expression of PepCYP (both ripe and unripe fruits, 4 and 40 μM drop-applied, 24 h)	accumulation of PepCYP mRNA (ripe fruit, 40 μM drop-applied, 24 h)	induction of PepCYP expression (unripe fruit, 100, 400 and 1000 μM (data not shown))
CC1=CC(=O)CC(C)(C)[C@@]1(O)/C=C/C(C)=C\C(=O)O [ABA, abscisic acid]	did not affect	–	–
CC/C=C\C[C@H]1C(=O)CC[C@@H]1CC(=O)O [JA, Jasmonic acid]	–	highly accumulated	No induction
